#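 Following 48 hours of exposure in 96-well plates, responses at five concentrations were used to interpolate endpoints linearly. Abbreviation: GI50, concentration required for 50% inhibition of growth. TGI denotes the concentration required for complete inhibition of growth.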
# Columns and labels:
# Assay in all cases: NCI anticancer screen, dose series, 48 h
# HOP-62 NSCLC = system: HOP-62 NSCLC
# SNB-19 CNS = system: SNB-19 CNS
# HCC-2998 colon = system: HCC-2998 colon
# K-562 leukemia = system: K-562 leukemia
# HOP-92 NSCLC = system: HOP-92 NSCLC
# OVCAR-3 ovarian = system: OVCAR-3 ovarian
# CAKI-1 renal = system: CAKI-1 renal
# MALME-3M melanoma = system: MALME-3M melanoma
# MDA-MB-435 = system: MDA-MB-435
# HT29 colon = system: HT29 colon
# A549 NSCLC = system: A549 NSCLC
Compound,TGI (HOP-62 NSCLC),TGI (SNB-19 CNS),TGI (HCC-2998 colon),TGI (K-562 leukemia),TGI (HOP-92 NSCLC),TGI (OVCAR-3 ovarian),TGI (CAKI-1 renal),TGI (MALME-3M melanoma),TGI (MDA-MB-435),TGI (HT29 colon),TGI (A549 NSCLC),GI50 (OVCAR-3 ovarian),GI50 (CAKI-1 renal),GI50 (MDA-MB-435),GI50 (K-562 leukemia),GI50 (HOP-92 NSCLC),GI50 (HT29 colon),GI50 (A549 NSCLC)
CCOC(=O)CCC(NC(=O)Cc1ccc(Nc2nc3cc(F)c(F)cc3nc2C(=O)OCC)cc1)C(=O)OCC (stereo not drawn),> 100 µM,> 100 µM,> 100 µM,> 100 µM,82.1 µM,> 100 µM,> 100 µM,> 100 µM,> 100 µM,> 100 µM,> 100 µM,,,,,,,
O=C1Sc2cc3ccccc3cc2C(=O)Sc2ccc(Br)cc21,18.3 µM,32.2 µM,19.3 µM,19.2 µM,20.9 µM,5.21 µM,14.8 µM,26.5 µM,13.4 µM,13.1 µM,30.9 µM,,,,,,,
O=C1Nc2cccc(Cl)c2/C1=C\c1c(Cl)nc2n1CCS2,> 100 µM,> 100 µM,> 100 µM,> 100 µM,> 100 µM,> 100 µM,> 100 µM,> 100 µM,> 100 µM,> 100 µM,> 100 µM,,,,,,,
NC(N)=NS(=O)(=O)c1ccc(NNc2c3ccccc3nc3c(C(=O)Nc4ccc(S(=O)(=O)Nc5ncccn5)cc4)cccc23)cc1,> 100 µM,> 100 µM,> 100 µM,> 100 µM,> 100 µM,> 100 µM,> 100 µM,67.8 µM,> 100 µM,54.6 µM,> 100 µM,,,,,,,
COc1cc(C2c3cc4c(cc3OC(N3CCCCC3)C2C)OCO4)cc(OC)c1O (stereo not drawn),25.9 µM,53.7 µM,32.7 µM,> 100 µM,37.3 µM,19.8 µM,25.2 µM,16.8 µM,5.92 µM,> 37.5 µM,27.1 µM,,,,,,,
C=CCn1c(N)c(C#N)c(C#N)c1-c1ccccc1,> 100 µM,> 100 µM,> 100 µM,> 100 µM,> 100 µM,> 100 µM,> 100 µM,> 100 µM,> 100 µM,> 100 µM,> 100 µM,,,,,,,
O=C(Nc1ccccc1)c1cc(S(=O)(=O)NC2=NC(c3ccccc3)c3cc(Cl)ccc3N2)c(SSc2cc(Cl)c(C(=O)Nc3ccccc3)cc2S(=O)(=O)NC2=NC(c3ccccc3)c3cc(Cl)ccc3N2)cc1Cl (stereo not drawn),> 100 µM,> 100 µM,> 100 µM,> 100 µM,> 100 µM,> 100 µM,> 100 µM,> 100 µM,> 100 µM,> 100 µM,> 100 µM,,,,,,,
Cc1n(Cc2ccccc2)c2c([n+]1C)C(=O)c1ccccc1C2=O,0.775 µM,0.0916 µM,1.45 µM,1.66 µM,1.49 µM,0.0771 µM,11.3 µM,0.0577 µM,0.33 µM,0.353 µM,0.197 µM,,,,,,,
[N-]=[N+]=Nc1c([N+](=O)[O-])c(=O)n(-c2ccccc2)c2ccccc12,> 100 µM,> 100 µM,> 100 µM,64.8 µM,86.9 µM,22.7 µM,56.3 µM,35 µM,47 µM,> 100 µM,> 100 µM,,,,,,,
Nc1ccc2c(c1)C(=O)N1CCC[C@H]1C(=O)N2,> 100 µM,> 100 µM,> 100 µM,> 100 µM,> 100 µM,> 100 µM,> 100 µM,> 100 µM,> 100 µM,> 100 µM,> 100 µM,,,,,,,
COc1cccc(C2c3cc4c(cc3OC(N3CCCCC3)C2C)OCO4)c1O (stereo not drawn),13.7 µM,> 100 µM,25.6 µM,12.7 µM,46.8 µM,9.14 µM,> 53 µM,36.1 µM,6.82 µM,13.3 µM,> 66.5 µM,,,,,,,
Cc1ccc(C2SCC(=O)N2c2ccc(-n3c(-c4ccccc4)nc4ccccc4c3=O)cc2)cc1 (stereo not drawn),53.9 µM,> 100 µM,63.1 µM,> 100 µM,51.6 µM,51.9 µM,> 100 µM,73 µM,65.3 µM,61.1 µM,> 100 µM,,,,,,,
O=C(N/N=C(\c1ccccc1)c1ccccn1)NC1CCCCC1,> 100 µM,> 100 µM,> 100 µM,> 100 µM,> 100 µM,> 100 µM,> 100 µM,> 100 µM,> 100 µM,> 100 µM,> 100 µM,,,,,,,
C=CCc1cccc2cc(C(=O)NCc3ccccc3)c(=N)oc12,> 100 µM,> 100 µM,67.8 µM,> 100 µM,> 100 µM,58.6 µM,> 100 µM,40.4 µM,> 100 µM,> 100 µM,> 100 µM,,,,,,,
Cc1ccnc2[nH]c(-c3ccc4ccccc4c3)cc(=O)c12,12.6 µM,31 µM,19.4 µM,6.52 µM,4.78 µM,4.51 µM,14.4 µM,18.6 µM,0.453 µM,12.4 µM,16.1 µM,1.29 µM,2.39 µM,0.204 µM,,,,
BrC1=C(Br)C2(SCCS2)[C@H]2C[C@@H]1c1ccccc12,> 100 µM,> 100 µM,> 89.6 µM,> 100 µM,> 100 µM,> 100 µM,> 100 µM,> 100 µM,> 100 µM,> 100 µM,> 100 µM,,,,,,,
O=c1[nH]nnc2c1sc1ncccc12,> 100 µM,> 100 µM,> 100 µM,> 100 µM,> 100 µM,> 100 µM,> 100 µM,> 100 µM,> 100 µM,> 100 µM,> 100 µM,,,,,,,
Cc1ccc(S(=O)(=O)c2[nH]cc(/C(=C\C3CCCCC3)[N+](=O)[O-])c2C2CCCCC2)cc1,3.71 µM,3.98 µM,0.485 µM,0.923 µM,3.99 µM,0.981 µM,0.531 µM,1.62 µM,> 100 µM,> 100 µM,6.59 µM,,,,,,,
CN1C(=O)c2ccccc2OC12C=Cc1c(ccc3ccccc13)O2 (stereo not drawn),27.3 µM,> 59.4 µM,16 µM,> 31.5 µM,8.47 µM,19.1 µM,33.3 µM,15.6 µM,> 24.5 µM,10.3 µM,40.1 µM,,,,,,,
Cc1[nH]c(=O)nc2nc3ccc(Cl)cc3c(NCCNCCO)c12,20.6 µM,21.4 µM,26.5 µM,> 100 µM,24.2 µM,25.2 µM,25.4 µM,28.5 µM,25.7 µM,21.9 µM,33 µM,,,,,,,
CC1(C)OC(C(=O)Nc2cc3c4ccccc4ccc3c3ccccc23)C(C(=O)N2CCCCC2)O1 (stereo not drawn),> 100 µM,> 100 µM,> 100 µM,> 100 µM,> 100 µM,> 100 µM,> 54.6 µM,> 100 µM,> 100 µM,> 100 µM,> 100 µM,,,,,,,
COC(=O)C1=C(C(=O)OC)N(c2ccc(OC)cc2[N+](=O)[O-])C(c2ccc(C)cc2)=CC1c1ccc(OC)cc1OC (stereo not drawn),> 72.7 µM,> 95.6 µM,30.6 µM,> 54.4 µM,> 100 µM,> 95 µM,> 92.4 µM,> 77.4 µM,> 100 µM,> 100 µM,65.3 µM,,,,,,,
CO/N=C(\C)c1ccc(Nc2nc3ccccc3c3occc23)cc1,29.5 µM,31.2 µM,30.4 µM,50.7 µM,27.6 µM,96.1 µM,32 µM,28.3 µM,31.1 µM,14.5 µM,39 µM,,,,,,,
O=S(=O)(O)CCCc1cccc2ccccc12,> 100 µM,> 100 µM,> 100 µM,> 100 µM,> 100 µM,> 100 µM,> 100 µM,> 100 µM,> 100 µM,> 100 µM,> 100 µM,,,,,,,
C/C=C/C(CC(O)(C(F)(F)F)C(F)(F)F)=N/NC(N)=S,> 10 µM,> 10 µM,> 10 µM,> 10 µM,> 10 µM,> 10 µM,> 10 µM,> 10 µM,> 10 µM,> 10 µM,> 10 µM,,,,,,,
COC[C@@H](N=CC(C)(C)C)C(C)C,> 100 µM,> 100 µM,> 100 µM,> 100 µM,> 100 µM,> 100 µM,> 100 µM,> 100 µM,> 100 µM,> 100 µM,> 100 µM,,,,,,,
NS(=O)(=O)c1ccc(/C=C/c2ccc(O)c(O)c2)cc1,> 100 µM,> 100 µM,41.7 µM,> 100 µM,47.9 µM,> 100 µM,> 100 µM,> 100 µM,51.5 µM,> 100 µM,> 100 µM,,29.1 µM,16.8 µM,35.3 µM,15.8 µM,35.4 µM,22.3 µM
Brc1ccc2[nH]cc(-c3csc(-c4c[nH]c5ccccc45)n3)c2c1,16.4 µM,9.6 µM,3.96 µM,> 20.8 µM,7.68 µM,11.8 µM,9.2 µM,8.21 µM,15.7 µM,3.29 µM,20.2 µM,,,,,,,
COc1cc(OC)cc(Oc2nc3ccccc3nc2C(F)(F)F)c1,> 100 µM,> 100 µM,> 100 µM,> 100 µM,> 100 µM,> 100 µM,> 100 µM,> 100 µM,> 100 µM,> 100 µM,> 100 µM,,,,,,,
